“And” between values parts separate entries of the source, which are not always exact repeats. Equal entries are not always repeated. Where a SMILES comes first, the peptide text is derived from it. [ ]: non-standard residue; d: D form.

Here are results for 2 molecules from patent US12297192B2, “Crystal form of pyrimidine sulfonamide compound and preparation method therefor” (WUXI BIOCITY BIOPHARMACEUTICS CO., LTD., priority 2019, dated 2025).

The target in one assay is T1, human ETA receptors (Homo sapiens, UniProt P25101).
T1 construct: endogenously expressed human ETA receptors in SK-N-MC cells; host or cells: SK-N-MC cells
T1 sequence (P25101 21-427): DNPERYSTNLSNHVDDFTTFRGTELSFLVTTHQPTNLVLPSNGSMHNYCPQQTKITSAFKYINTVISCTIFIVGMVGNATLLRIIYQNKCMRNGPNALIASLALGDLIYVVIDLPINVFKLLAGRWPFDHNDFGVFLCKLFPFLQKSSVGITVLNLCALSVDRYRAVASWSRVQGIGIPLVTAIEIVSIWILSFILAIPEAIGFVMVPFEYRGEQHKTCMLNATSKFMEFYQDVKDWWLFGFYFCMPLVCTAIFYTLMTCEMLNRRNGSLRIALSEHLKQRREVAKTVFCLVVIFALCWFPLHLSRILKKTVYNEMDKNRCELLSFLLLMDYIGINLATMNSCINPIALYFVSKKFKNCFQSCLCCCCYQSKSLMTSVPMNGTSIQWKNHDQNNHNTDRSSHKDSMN
Description: In vitro antagonistic effect on human ETA receptors (Ca2+ fluorescence, SK-N-MC cells). Format: cell-based. The conditions noted are these: SK-N-MC cells, 1 nM endothelin-1. As to the method: The antagonistic activity of the compounds on endogenously expressed human ETA receptors in SK-N-MC cells was assessed by measuring the effects of the compounds on changes in cytoplasmic Ca^2+ ion signaling induced by an agonist of human ETA receptor using a fluorescence assay. The functional activity of the ETA receptor antagonistic effect was tested at Eurofins-Cerep SA according to current standard operating procedures.
• 1. Cells were suspended in Dulbecco's modified Eagle medium solution (DMEM, Invitrogen) supplemented with 1% FCSd and then distributed at a density of 5×10^4 cells/well in 384 plates (100 μL/well). • 2. Hank's Balanced Salt Solution (HBSS, Invitrogen) supplemented with 20 mM 4-(2-hydroxyethyl) piperazine-1-ethanesulfonic acid (Hepes, Invitrogen) (pH 7.4) was mixed with the fluorescent probe (Fluo4 NW, Invitrogen) and added to each well. Equilibrated with the cells for 60 minutes at 37° C. and then for 15 min at 22° C. • 3. The assay plate was placed in a microplate reader (CellLux, PerkinElmer). DMSO solution of the test compound and the positive control in appropriate concentration or HBSS buffer was added. After 5 minutes, 1 nM endothelin-1 or HBSS buffer (basal control) was added. Then the change in fluorescence intensity was measured. The fluorescence intensity is in proportion to the Ca^2+ ion concentration of the free cytosol. • 4. […] The standard positive control was BQ-123 and several concentrations were tested in each experiment and the data was analyzed using Prism to produce a concentration-response curve to calculate the IC50 values of the compounds. • 6.

The target of another assay is T2, human ETB receptors (Homo sapiens, UniProt P24530).
T2 construct: host or cells: CHO cells
T2 sequence (P24530 27-442): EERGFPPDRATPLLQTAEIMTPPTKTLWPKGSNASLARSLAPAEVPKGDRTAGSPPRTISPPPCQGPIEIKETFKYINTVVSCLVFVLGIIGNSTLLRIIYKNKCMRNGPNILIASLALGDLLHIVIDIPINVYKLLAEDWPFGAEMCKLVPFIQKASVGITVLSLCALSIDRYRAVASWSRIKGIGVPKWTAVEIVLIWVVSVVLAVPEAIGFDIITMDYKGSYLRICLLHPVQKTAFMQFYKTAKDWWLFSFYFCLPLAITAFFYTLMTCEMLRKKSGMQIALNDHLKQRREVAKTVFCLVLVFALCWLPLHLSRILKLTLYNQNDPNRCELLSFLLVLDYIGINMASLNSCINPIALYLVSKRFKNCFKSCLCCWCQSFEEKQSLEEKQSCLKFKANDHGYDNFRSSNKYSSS
Description: In vitro antagonistic effect on human ETB receptors (Ca2+ fluorescence, transfected CHO cells). The class given is cell-based. The conditions noted are these: 0.3 nM endothelin-1. As to the method:
The antagonist activities of the compounds on human ETB receptors expressed in transfected CHO cells were assessed by measuring the effects of the compounds on changes in cytoplasmic Ca^2+ ion signaling induced by an agonist of human ETB receptor using a fluorescence assay. The functional activity of the ETB receptor antagonistic effect was tested at Eurofins-Cerep SA according to current standard operating procedures.
• 1. Cells were suspended in DMEM buffer (Invitrogen) and then distributed at a density of 3×10^4 cells/well in 384 plates (100 μL/well). • 2. HBSS buffer (Invitrogen) supplemented with 20 mM Hepes (Invitrogen) (pH 7.4) was mixed with the fluorescent probe (Fluo4 Direct, Invitrogen) and added to each well. Equilibrated with the cells for 60 minutes at 37° C. and then for 15 minutes at 22° C. • 3. The assay plate was placed in a microplate reader (CellLux, PerkinElmer). DMSO solution of the test compound and the positive control or HBSS buffer in appropriate concentration was added. […] Then the change in fluorescence intensity was measured. The fluorescence intensity is in proportion to the Ca^2+ ion concentration of the free cytosol. • 4. […] The standard positive control was BQ-788 and several concentrations were tested in each experiment and the data was analyzed using Prism to produce a concentration-response curve to calculate the IC50 values of the compounds. […]

As for `CC(C)C[C@@H]1NC(=O)[C@@H](C(C)C)NC(=O)[C@@H]2CCCN2C(=O)[C@@H](CC(=O)O)NC(=O)[C@@H](Cc2c[nH]c3ccccc23)NC1=O` [BQ-123, reference compound] (cyclo(L[dW][dD]P[dV])), on human ETA receptors, the IC50 (commonly the concentration at which inhibition is half-maximal) is 0.61 nM and 0.48 nM.

As for `CCCC[C@@H](NC(=O)[C@@H](Cc1cn(C(=O)OC)c2ccccc12)NC(=O)[C@H](CC(C)(C)C)NC(=O)N1[C@H](C)CCC[C@@H]1C)C(=O)O` [BQ-788], the IC50 at human ETB receptors was 130 nM and 91 nM.
